Usually IC50 stands for the concentration that gives 50% inhibition. In general, MIC refers to the least concentration at which growth counts as inhibited.

In ChEMBL document CHEMBL3779770, “Synthesis, biological evaluation and molecular docking study of some novel indole and pyridine based 1,3,4-oxadiazole derivatives as potential antitubercular agents” (Bioorg Med Chem Lett, 2016) one finds IC50 and MIC data, which are given here for 22 compounds.

Converted amounts (≈) assume the structure as drawn.

In assay [1] the test system is Mycobacterium tuberculosis variant bovis BCG. The experiment in a line: Antitubercular activity against active state Mycobacterium bovis BCG ATCC 35734 assessed as viable cells after 8 days by nitrate reductase assay. Format: functional, organism-based. The settings on record: ATCC 35734, 192 h.
For assay [2] the test system is unchanged. Briefly: Antitubercular activity against dormant state Mycobacterium bovis BCG ATCC 35734 assessed as viable cells after 12 days by nitrate reductase assay. Format: functional, organism-based. The settings on record: ATCC 35734, 288 h.

Take `O=C(/C=C\c1cccc(O)c1)N1N=C(c2ccncc2)OC1c1c[nH]c2ccccc12` (stereo not drawn): the IC50 in assay [1] and in assay [2] was over 30 µg/mL throughout. The MIC in assay [1] and in assay [2] was over 30 µg/mL throughout.

`O=C(/C=C\c1ccc(O)cc1)N1N=C(c2ccncc2)OC1c1c[nH]c2ccccc12` (stereo not drawn): in assay [1], the IC50 came to 28.8 µg/mL (≈ 70.2 µM) and the MIC is over 30 µg/mL. In assay [2], the IC50 stood at 27.9 µg/mL (≈ 68 µM) and the MIC is over 30 µg/mL.

Consider `COc1ccc(/C=C\C(=O)N2N=C(c3ccncc3)OC2c2c[nH]c3ccccc23)cc1` (stereo not drawn), for which, in assay [1], the IC50 was over 30 µg/mL and the MIC was over 30 µg/mL. In assay [2], the IC50 was over 30 µg/mL and the MIC was over 30 µg/mL.

For `O=C(/C=C\c1ccccc1Cl)N1N=C(c2ccncc2)OC1c1c[nH]c2ccccc12` (stereo not drawn), in assay [1], the IC50 was over 30 µg/mL and the MIC was over 30 µg/mL. Further, in assay [2], the IC50 is over 30 µg/mL and the MIC was over 30 µg/mL.

Regarding `O=C(/C=C\c1ccc(F)cc1)N1N=C(c2ccncc2)OC1c1c[nH]c2ccccc12` (stereo not drawn), the IC50 in assay [1] and in assay [2] was over 30 µg/mL each time. Besides, the MIC in assay [1] and in assay [2] was over 30 µg/mL in each case.

In the case of `O=C(/C=C\c1cccc([N+](=O)[O-])c1)N1N=C(c2ccncc2)OC1c1c[nH]c2ccccc12` (stereo not drawn), in assay [1], the IC50 was over 30 µg/mL and the MIC is over 30 µg/mL. In assay [2], the IC50 was over 30 µg/mL and the MIC was over 30 µg/mL.

For `O=C(/C=C\c1cccc(Br)c1)N1N=C(c2ccncc2)OC1c1c[nH]c2ccccc12` (stereo not drawn), in assay [1], the IC50 is over 30 µg/mL and the MIC was over 30 µg/mL. Also, in assay [2], the IC50 was determined as 21.7 µg/mL (≈ 45.9 µM) and the MIC is over 30 µg/mL.

Turning to `O=C(/C=C/c1c(Cl)cccc1Cl)N1N=C(c2ccncc2)OC1c1c[nH]c2ccccc12` (stereo not drawn), the results for the IC50 in assay [1] and in assay [2] were over 30 µg/mL and 19.2 µg/mL (≈ 41.5 µM), respectively. The MIC in assay [1] and in assay [2] was over 30 µg/mL in each case.

Turning to `Cc1ccc(/C=C\C(=O)N2N=C(c3ccncc3)OC2c2c[nH]c3ccccc23)cc1` (stereo not drawn), in assay [1], the IC50 was over 30 µg/mL and the MIC is over 30 µg/mL. For the same compound, in assay [2], the IC50 was over 30 µg/mL and the MIC is over 30 µg/mL.

Turning to `O=C(/C=C\c1ccc([N+](=O)[O-])cc1)N1N=C(c2ccncc2)OC1c1c[nH]c2ccccc12` (stereo not drawn), in assay [1], the IC50 was found to be 1.42 µg/mL (≈ 3.23 µM) and the MIC was 2.5 µg/mL (≈ 5.69 µM). In addition, in assay [2], the IC50 came to 1.37 µg/mL (≈ 3.12 µM) and the MIC was determined as 2.37 µg/mL (≈ 5.39 µM).

With `O=C(/C=C\c1cccc(Cl)c1Cl)N1N=C(c2ccncc2)OC1c1c[nH]c2ccccc12` (stereo not drawn), in assay [1], the IC50 is over 30 µg/mL and the MIC is over 30 µg/mL. Also, in assay [2], the IC50 is over 30 µg/mL and the MIC is over 30 µg/mL.

For the compound `O=C(/C=C\c1ccccc1O)N1N=C(c2ccncc2)OC1c1c[nH]c2ccccc12` (stereo not drawn), the IC50 in assay [1] was determined as 0.46 µg/mL (≈ 1.12 µM); in assay [2] it was 0.68 µg/mL (≈ 1.66 µM). For the same compound, the MIC in assay [1] was found to be 0.94 µg/mL (≈ 2.29 µM); in assay [2] it was 1.19 µg/mL (≈ 2.9 µM).

On to `O=C(/C=C\c1ccccc1)N1N=C(c2ccncc2)OC1c1c[nH]c2ccccc12` (stereo not drawn), for which the figures for the IC50 in assay [1] and in assay [2] were 12.3 µg/mL (≈ 31.3 µM) and 11.2 µg/mL (≈ 28.5 µM), respectively. Moreover, the MIC in assay [1] and in assay [2] was over 30 µg/mL in each case.

On to `O=C(/C=C\c1ccc(Cl)cc1)N1N=C(c2ccncc2)OC1c1c[nH]c2ccccc12` (stereo not drawn), for which, in assay [1], the IC50 was over 30 µg/mL and the MIC is over 30 µg/mL. For the same compound, in assay [2], the IC50 was over 30 µg/mL and the MIC is over 30 µg/mL.

For `O=C(/C=C\c1ccccc1F)N1N=C(c2ccncc2)OC1c1c[nH]c2ccccc12` (stereo not drawn), the IC50 in assay [1] and in assay [2] was over 30 µg/mL each time. Also, the MIC in assay [1] and in assay [2] was over 30 µg/mL each time.

With `O=C(/C=C\c1ccc(Br)cc1)N1N=C(c2ccncc2)OC1c1c[nH]c2ccccc12` (stereo not drawn), in assay [1], the IC50 is over 30 µg/mL and the MIC is over 30 µg/mL. Also, in assay [2], the IC50 was over 30 µg/mL and the MIC is over 30 µg/mL.

In the case of `O=C(/C=C\c1ccc(Cl)cc1Cl)N1N=C(c2ccncc2)OC1c1c[nH]c2ccccc12` (stereo not drawn), in assay [1], the IC50 came to 2.93 µg/mL (≈ 6.32 µM) and the MIC came to 5.17 µg/mL (≈ 11.2 µM). In assay [2], the IC50 is 1.5 µg/mL (≈ 3.24 µM) and the MIC was found to be 4.97 µg/mL (≈ 10.7 µM).

For the compound `O=C(/C=C\c1cccc(F)c1)N1N=C(c2ccncc2)OC1c1c[nH]c2ccccc12` (stereo not drawn), the figures for the IC50 in assay [1] and in assay [2] were 19.5 µg/mL (≈ 47.4 µM) and 20.4 µg/mL (≈ 49.5 µM), respectively. Also, the MIC in assay [1] and in assay [2] was over 30 µg/mL each time.

With `O=C(/C=C\c1cccc(Cl)c1)N1N=C(c2ccncc2)OC1c1c[nH]c2ccccc12` (stereo not drawn), in assay [1], the IC50 was over 30 µg/mL and the MIC was over 30 µg/mL. In assay [2], the IC50 is over 30 µg/mL and the MIC is over 30 µg/mL.

For the compound `O=C(/C=C\c1ccccc1[N+](=O)[O-])N1N=C(c2ccncc2)OC1c1c[nH]c2ccccc12` (stereo not drawn), in assay [1], the IC50 turned out to be 0.48 µg/mL (≈ 1.09 µM) and the MIC amounted to 1.03 µg/mL (≈ 2.34 µM). Also, in assay [2], the IC50 was determined as 0.36 µg/mL (≈ 0.819 µM) and the MIC came out at 0.85 µg/mL (≈ 1.93 µM).

In the case of `NNC(=O)c1ccncc1` [ISONIAZID], in assay [1], the IC50 stood at 0.0012 µg/mL (≈ 0.00875 µM) and the MIC stood at 0.033 µg/mL (≈ 0.241 µM). In addition, in assay [2], the IC50 is 0.0017 µg/mL (≈ 0.0124 µM) and the MIC worked out at 0.037 µg/mL (≈ 0.27 µM).

With `CO[C@H]1/C=C/O[C@@]2(C)Oc3c(C)c(O)c4c(O)c(c(/C=N/N5CCN(C)CC5)c(O)c4c3C2=O)NC(=O)/C(C)=C\C=C\[C@H](C)[C@H](O)[C@@H](C)[C@@H](O)[C@@H](C)[C@H](OC(C)=O)[C@@H]1C` [RIFAMPIN], in assay [1], the IC50 turned out to be 0.0012 µg/mL (≈ 0.00146 µM) and the minimum inhibitory concentration (MIC) came out at 0.015 µg/mL (≈ 0.0182 µM). Moreover, in assay [2], the IC50 is 0.0015 µg/mL (≈ 0.00182 µM) and the MIC amounted to 0.017 µg/mL (≈ 0.0207 µM).
